Results from patent US8822534B2, “Substituted aminopropionic derivatives as neprilysin inhibitors” (priority 2009, dated 2014).

Molecular target: recombinant human neutral endopeptidase (NEP, EC 3.4.24.11) (Homo sapiens (Human), UniProt P08473)
Assay: in vitro inhibition of recombinant human neutral endopeptidase (fluorescence lifetime assay)
Type: biochemical
From the text: The activity of a compound according to the present invention can be assessed by the following in vitro & in vivo methods and/or by the following in vitro & in vivo methods well-described in the art. See A fluorescence lifetime-based assay for protease inhibitor profiling on human kallikrein 7 Doering K, Meder G, Hinnenberger M, Woelcke J, Mayr L M, Hassiepen U Biomol Screen.
In particular, the in vitro inhibition of recombinant human neutral endopeptidase (NEP, EC 3.4.24.11) can be determined as follows: […]

recombinant human neutral endopeptidase (NEP, EC 3.4.24.11), sequence (P08473 whole entry): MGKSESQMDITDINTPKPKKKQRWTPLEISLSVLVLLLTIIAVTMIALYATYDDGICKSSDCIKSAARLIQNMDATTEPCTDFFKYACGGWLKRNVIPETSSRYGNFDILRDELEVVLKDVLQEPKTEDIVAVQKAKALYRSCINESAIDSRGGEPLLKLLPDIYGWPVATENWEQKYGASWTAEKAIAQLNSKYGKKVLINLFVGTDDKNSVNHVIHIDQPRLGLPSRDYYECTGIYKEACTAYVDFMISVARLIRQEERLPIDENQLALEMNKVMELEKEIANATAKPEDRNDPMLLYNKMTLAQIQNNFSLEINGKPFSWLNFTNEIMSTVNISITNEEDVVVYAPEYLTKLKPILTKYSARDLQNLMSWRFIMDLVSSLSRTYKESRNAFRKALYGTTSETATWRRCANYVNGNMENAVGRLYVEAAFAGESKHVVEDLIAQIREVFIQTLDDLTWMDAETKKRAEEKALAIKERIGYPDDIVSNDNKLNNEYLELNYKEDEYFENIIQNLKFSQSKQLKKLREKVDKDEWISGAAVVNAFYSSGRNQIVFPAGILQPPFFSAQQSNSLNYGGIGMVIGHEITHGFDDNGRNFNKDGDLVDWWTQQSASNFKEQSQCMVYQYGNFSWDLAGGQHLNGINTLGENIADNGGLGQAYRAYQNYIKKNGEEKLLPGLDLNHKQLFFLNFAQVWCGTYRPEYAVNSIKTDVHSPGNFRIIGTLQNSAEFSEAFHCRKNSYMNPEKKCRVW

## O=C(O)C[C@@H](Cc1ccc(-c2cccc(Cl)c2)cc1)NC(=O)CCC(=O)Oc1ccc2c(c1)CCC2 [Example 3-27]
  IC50: 15 nM
